Earlier results as cited in patent US7632832B2, “CGRP receptor antagonists” (Merck & Co., Inc., priority 2005, dated 2009).

Test system: CGRP
Conditions: marmoset, electrical stimulation of the trigeminal ganglion (Doods et al. 2000)

For NCCCC[C@H](NC(=O)[C@@H](Cc1cc(Br)c(O)c(Br)c1)NC(=O)N1CCC(N2Cc3ccccc3NC2=O)CC1)C(=O)N1CCN(c2ccncc2)CC1 [BIBN4096BS], the “effect on increase in facial blood flow” value is given as “blocked”.
